# From publication PMC5448077, “Development of an orally available inhibitor of CLK1 for skipping a mutated dystrophin exon in Duchenne muscular dystrophy” (Scientific Reports, 2017)
# Key:
# Experiment in all cases: biochemical
# AKT1 = AKT1 (Homo sapiens, UniProt P31749)
# Procedure, shortened: (§1)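 Reactions at room temperature in HEPES buffer (20 mM, pH 7.5, 0.01% Triton X-100, 2 mM DTT) lasted 1 or 5 h depending on kinase, with substrate peptide and ATP-metal. Phosphorylation read by electrophoretic mobility shift or IMAP polarization; kinase activity computed as P/(P + S).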
# AurB = biological target: T1, AurB (Homo sapiens, UniProt Q96GD4)
# T1 construct: gene AURKB
# Procedure, shortened: as §1
# AurC = biological target: T2, AurC (Homo sapiens, UniProt Q9UQB9)
# T2 construct: gene AURKC
# Procedure, shortened: as §1
# CDK2/CycA2 = CDK2/CycA2 (Homo sapiens, UniProt P24941)
# Procedure, shortened: as §1
# CDK9/CycT1 = CDK9/CycT1 (Homo sapiens, UniProt P50750)
# Procedure, shortened: as §1
# CaMK1α = biological target: T3, CaMK1α (Homo sapiens, UniProt Q14012)
# T3 construct: gene CAMK1
# Procedure, shortened: as §1
# CaMK2β = biological target: T4, CaMK2β (Homo sapiens, UniProt Q13554)
# T4 construct: gene CAMK2B
# Procedure, shortened: as §1
# DDR2 = DDR2 (Homo sapiens, UniProt Q16832)
# Chain of DDR2 (Q16832 whole entry): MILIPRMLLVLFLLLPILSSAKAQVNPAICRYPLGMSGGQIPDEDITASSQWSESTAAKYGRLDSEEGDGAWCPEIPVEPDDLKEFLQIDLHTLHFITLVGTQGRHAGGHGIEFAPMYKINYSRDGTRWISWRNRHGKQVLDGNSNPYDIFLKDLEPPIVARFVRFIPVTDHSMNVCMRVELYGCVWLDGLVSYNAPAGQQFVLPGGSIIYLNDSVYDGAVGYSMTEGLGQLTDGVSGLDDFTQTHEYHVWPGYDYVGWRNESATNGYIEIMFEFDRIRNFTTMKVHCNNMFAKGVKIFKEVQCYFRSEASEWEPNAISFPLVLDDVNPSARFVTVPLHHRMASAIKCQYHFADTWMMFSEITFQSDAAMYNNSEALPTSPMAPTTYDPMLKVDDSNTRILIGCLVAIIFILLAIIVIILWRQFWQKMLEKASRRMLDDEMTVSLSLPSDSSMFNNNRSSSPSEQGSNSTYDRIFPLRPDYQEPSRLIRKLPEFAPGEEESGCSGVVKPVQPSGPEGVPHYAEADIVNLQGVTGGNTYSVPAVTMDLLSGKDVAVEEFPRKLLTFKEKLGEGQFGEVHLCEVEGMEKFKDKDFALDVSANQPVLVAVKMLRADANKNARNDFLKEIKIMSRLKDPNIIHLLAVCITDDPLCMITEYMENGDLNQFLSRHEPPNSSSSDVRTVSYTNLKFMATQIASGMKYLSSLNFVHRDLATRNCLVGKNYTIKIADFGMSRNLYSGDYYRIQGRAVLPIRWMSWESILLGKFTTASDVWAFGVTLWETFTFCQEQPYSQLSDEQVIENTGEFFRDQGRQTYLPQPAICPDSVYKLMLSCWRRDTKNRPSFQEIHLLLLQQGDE
# Procedure, shortened: as §1
# DYRK1A = DYRK1A (Homo sapiens, UniProt Q13627)
# Procedure, shortened: as §1
# EGFR(T790M) = EGFR(T790M) (Homo sapiens, UniProt P00533, T790M)
# Procedure, shortened: as §1
# EPHA2 = EPHA2 (Homo sapiens, UniProt P29317)
# Procedure, shortened: as §1
# EPHA7 = EPHA7 (Homo sapiens, UniProt Q15375)
# Procedure, shortened: as §1
# FGFR1(V561M) = FGFR1(V561M) (Homo sapiens, UniProt P11362, V561M)
# Chain of FGFR1(V561M) (P11362 whole entry V561M): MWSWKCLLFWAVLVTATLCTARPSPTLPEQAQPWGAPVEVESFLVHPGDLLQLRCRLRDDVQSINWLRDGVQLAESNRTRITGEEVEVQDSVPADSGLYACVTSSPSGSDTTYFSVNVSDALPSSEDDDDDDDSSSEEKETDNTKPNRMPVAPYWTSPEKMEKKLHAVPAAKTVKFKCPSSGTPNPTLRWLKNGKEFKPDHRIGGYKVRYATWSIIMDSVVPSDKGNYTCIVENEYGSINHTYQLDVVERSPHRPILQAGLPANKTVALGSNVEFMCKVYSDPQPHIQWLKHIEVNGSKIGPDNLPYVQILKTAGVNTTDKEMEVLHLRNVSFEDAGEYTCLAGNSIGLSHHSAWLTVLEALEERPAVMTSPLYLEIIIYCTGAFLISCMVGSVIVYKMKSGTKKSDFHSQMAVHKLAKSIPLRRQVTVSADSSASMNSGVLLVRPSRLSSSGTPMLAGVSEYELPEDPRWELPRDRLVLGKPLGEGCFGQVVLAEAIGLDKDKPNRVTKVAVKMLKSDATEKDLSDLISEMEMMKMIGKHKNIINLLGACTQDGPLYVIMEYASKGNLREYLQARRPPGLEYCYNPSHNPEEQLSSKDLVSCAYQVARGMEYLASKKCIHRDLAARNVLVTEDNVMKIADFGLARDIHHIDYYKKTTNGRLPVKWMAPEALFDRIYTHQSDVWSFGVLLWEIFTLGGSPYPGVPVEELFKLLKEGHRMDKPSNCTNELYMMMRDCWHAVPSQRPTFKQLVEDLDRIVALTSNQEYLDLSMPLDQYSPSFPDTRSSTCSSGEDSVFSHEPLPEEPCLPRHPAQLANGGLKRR
# Procedure, shortened: as §1
# FGFR3 = FGFR3 (Homo sapiens, UniProt P22607)
# Procedure, shortened: as §1
# HER2 = biological target: T5, HER2 (Homo sapiens, UniProt P04626)
# T5 construct: gene ERBB2
# Procedure, shortened: as §1
# HIPK1 = HIPK1 (Homo sapiens, UniProt Q86Z02)
# Chain of HIPK1 (Q86Z02 whole entry): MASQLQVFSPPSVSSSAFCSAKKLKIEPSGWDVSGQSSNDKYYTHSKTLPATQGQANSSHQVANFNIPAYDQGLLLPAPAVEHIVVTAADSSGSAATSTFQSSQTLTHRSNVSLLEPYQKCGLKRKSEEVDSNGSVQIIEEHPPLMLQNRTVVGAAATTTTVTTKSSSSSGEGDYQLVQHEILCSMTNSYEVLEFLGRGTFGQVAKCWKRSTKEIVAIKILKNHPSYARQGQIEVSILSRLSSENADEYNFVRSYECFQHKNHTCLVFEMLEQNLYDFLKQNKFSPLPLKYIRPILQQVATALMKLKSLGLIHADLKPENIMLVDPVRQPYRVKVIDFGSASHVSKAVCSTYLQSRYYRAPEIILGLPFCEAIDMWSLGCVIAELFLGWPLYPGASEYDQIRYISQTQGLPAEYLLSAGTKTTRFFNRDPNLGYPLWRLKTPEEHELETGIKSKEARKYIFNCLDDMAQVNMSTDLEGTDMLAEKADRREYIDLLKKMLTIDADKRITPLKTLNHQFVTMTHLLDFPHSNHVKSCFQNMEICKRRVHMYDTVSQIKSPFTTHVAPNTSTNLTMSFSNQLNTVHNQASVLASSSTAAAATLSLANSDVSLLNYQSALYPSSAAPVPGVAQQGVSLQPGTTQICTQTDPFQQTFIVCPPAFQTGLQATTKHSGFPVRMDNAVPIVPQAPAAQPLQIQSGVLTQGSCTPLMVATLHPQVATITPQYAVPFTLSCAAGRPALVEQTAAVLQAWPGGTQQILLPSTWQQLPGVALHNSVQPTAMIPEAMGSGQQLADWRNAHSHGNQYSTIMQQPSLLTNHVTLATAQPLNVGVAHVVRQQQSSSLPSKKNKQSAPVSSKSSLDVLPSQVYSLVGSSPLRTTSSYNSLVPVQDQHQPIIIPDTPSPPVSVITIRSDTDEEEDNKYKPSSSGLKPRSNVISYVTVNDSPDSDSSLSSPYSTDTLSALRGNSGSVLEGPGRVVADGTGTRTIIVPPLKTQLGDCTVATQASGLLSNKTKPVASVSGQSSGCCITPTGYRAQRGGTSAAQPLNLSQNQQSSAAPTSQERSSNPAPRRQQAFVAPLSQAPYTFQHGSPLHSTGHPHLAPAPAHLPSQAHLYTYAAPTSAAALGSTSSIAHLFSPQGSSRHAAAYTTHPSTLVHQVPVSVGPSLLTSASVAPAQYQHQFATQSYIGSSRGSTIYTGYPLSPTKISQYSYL
# Procedure, shortened: as §1
# IKKβ = biological target: T6, IKKβ (Homo sapiens, UniProt O14920)
# T6 construct: gene IKBKB
# Procedure, shortened: as §1
# KIT(V560G) = KIT(V560G) (Homo sapiens, UniProt P10721, V560G)
# Procedure, shortened: as §1
# MARK4 = MARK4 (Homo sapiens, UniProt Q96L34)
# Procedure, shortened: as §1
# MINK = biological target: T7, MINK (Homo sapiens, UniProt Q8N4C8)
# T7 construct: gene MINK1
# Procedure, shortened: as §1
# NEK2 = NEK2 (Homo sapiens, UniProt P51955)
# Procedure, shortened: as §1
# PAK5 = PAK5 (Homo sapiens, UniProt Q9P286)
# Procedure, shortened: as §1
# PDGFRα = biological target: T8, PDGFRα (Homo sapiens, UniProt P16234)
# T8 construct: gene PDGFRA
# Procedure, shortened: as §1
# PIM1 = PIM1 (Homo sapiens, UniProt P11309)
# Procedure, shortened: as §1
# PKD3 = biological target: T9, PKD3 (Homo sapiens, UniProt O94806)
# T9 construct: gene PRKD3
# Procedure, shortened: as §1
# RET(G691S) = RET(G691S) (Homo sapiens, UniProt P07949, G691S)
# Chain of RET(G691S) (P07949 whole entry G691S): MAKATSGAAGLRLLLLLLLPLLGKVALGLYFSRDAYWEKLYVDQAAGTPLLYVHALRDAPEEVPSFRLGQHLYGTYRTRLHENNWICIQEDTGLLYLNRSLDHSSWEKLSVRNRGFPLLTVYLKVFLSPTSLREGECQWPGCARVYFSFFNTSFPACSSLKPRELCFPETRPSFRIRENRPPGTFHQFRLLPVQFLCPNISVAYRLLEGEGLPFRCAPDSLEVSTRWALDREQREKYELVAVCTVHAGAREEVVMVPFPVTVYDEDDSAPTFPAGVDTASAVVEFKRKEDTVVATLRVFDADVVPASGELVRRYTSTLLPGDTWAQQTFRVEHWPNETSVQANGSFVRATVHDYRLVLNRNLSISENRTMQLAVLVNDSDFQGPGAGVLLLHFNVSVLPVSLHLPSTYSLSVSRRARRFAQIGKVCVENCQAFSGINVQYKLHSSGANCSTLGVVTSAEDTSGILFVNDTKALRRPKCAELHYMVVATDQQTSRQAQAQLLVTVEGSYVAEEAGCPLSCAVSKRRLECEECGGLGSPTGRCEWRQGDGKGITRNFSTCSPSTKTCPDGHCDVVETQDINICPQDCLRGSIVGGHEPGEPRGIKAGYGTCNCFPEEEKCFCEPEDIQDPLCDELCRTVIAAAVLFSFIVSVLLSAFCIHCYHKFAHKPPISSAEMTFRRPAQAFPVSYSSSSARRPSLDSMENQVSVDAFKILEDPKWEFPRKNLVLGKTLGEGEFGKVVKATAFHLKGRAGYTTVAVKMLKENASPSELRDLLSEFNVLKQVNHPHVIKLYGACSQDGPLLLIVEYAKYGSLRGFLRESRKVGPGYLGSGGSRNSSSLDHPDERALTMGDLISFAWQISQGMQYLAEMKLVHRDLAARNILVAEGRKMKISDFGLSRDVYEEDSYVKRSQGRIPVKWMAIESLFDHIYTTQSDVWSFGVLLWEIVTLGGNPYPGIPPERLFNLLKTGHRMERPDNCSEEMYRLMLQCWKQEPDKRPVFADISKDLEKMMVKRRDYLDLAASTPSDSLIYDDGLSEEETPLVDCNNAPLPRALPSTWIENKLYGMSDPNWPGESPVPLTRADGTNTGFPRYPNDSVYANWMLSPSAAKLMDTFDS
# Procedure, shortened: as §1
# RET(Y791F) = RET(Y791F) (Homo sapiens, UniProt P07949, Y791F)
# Chain of RET(Y791F) (P07949 whole entry Y791F): as the sequence (P07949 whole entry G691S) above, with S691G, Y791F counted along it
# Procedure, shortened: as §1
# RSK4 = biological target: T10, RSK4 (Homo sapiens, UniProt Q9UK32)
# T10 construct: gene RPS6KA6
# Procedure, shortened: as §1
# SRC = SRC (Homo sapiens, UniProt P12931)
# Procedure, shortened: as §1
# TNIK = TNIK (Homo sapiens, UniProt Q9UKE5)
# Procedure, shortened: as §1
# YES = biological target: T11, YES (Homo sapiens, UniProt P07947)
# T11 construct: gene YES1
# T11 sequence (P07947 whole entry): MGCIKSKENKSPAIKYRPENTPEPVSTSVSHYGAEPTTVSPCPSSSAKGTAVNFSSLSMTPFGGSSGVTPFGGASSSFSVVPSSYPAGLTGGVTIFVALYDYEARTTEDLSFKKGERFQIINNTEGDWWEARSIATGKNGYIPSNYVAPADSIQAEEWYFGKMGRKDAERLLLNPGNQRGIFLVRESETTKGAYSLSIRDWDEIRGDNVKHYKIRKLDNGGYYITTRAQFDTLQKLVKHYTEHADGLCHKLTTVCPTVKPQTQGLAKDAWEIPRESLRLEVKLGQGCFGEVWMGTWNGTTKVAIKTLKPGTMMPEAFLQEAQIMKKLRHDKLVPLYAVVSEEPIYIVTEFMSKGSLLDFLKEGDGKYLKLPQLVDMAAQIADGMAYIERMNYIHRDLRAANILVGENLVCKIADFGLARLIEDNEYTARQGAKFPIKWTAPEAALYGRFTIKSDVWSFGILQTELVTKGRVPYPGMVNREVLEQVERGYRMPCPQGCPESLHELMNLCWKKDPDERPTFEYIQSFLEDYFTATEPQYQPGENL
# Procedure, shortened: as §1
# Chain of AKT1 (P31749 whole entry): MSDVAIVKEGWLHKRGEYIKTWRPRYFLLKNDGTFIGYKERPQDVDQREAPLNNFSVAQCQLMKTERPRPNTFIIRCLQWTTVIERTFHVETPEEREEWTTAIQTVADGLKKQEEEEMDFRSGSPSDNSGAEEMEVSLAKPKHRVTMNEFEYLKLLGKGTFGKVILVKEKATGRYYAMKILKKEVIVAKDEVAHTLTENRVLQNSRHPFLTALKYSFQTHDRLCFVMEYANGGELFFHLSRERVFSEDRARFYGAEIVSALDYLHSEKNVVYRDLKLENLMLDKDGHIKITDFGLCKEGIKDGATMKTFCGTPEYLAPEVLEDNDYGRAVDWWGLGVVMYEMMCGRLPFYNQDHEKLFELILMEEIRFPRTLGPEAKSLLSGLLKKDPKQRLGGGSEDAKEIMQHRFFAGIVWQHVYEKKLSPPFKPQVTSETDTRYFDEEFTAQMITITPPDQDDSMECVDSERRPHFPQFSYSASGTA
smiles,measurement,setting,value
"c1cc(-c2ccc3[nH]ncc3c2)ccn1 [TG693, 5-(4-pyridinyl)-1H-indazole]",inhibition at 1 µM,AKT1,-1.3%
same,inhibition at 1 µM,AurB,6.1%
same,inhibition at 1 µM,AurC,2.5%
same,inhibition at 1 µM,CDK2/CycA2,41.4%
same,inhibition at 1 µM,CDK9/CycT1,57.8%
same,inhibition at 1 µM,CaMK1α,1.5%
same,inhibition at 1 µM,CaMK2β,2.8%
same,inhibition at 1 µM,DDR2,-2.2%
same,inhibition at 1 µM,DYRK1A,84.3%
same,inhibition at 1 µM,EGFR(T790M),-0.2%
same,inhibition at 1 µM,EPHA2,5.7%
same,inhibition at 1 µM,EPHA7,5%
same,inhibition at 1 µM,FGFR1(V561M),-11.6%
same,inhibition at 1 µM,FGFR3,-0.6%
same,inhibition at 1 µM,HER2,-3.8%
same,inhibition at 1 µM,HIPK1,-3.5%
same,inhibition at 1 µM,IKKβ,14.6%
same,inhibition at 1 µM,KIT(V560G),-2.6%
same,inhibition at 1 µM,MARK4,25.1%
same,inhibition at 1 µM,MINK,23.2%
same,inhibition at 1 µM,NEK2,-11.9%
same,inhibition at 1 µM,PAK5,-14%
same,inhibition at 1 µM,PDGFRα,6.2%
same,inhibition at 1 µM,PIM1,1.2%
same,inhibition at 1 µM,PKD3,-9%
same,inhibition at 1 µM,RET(G691S),4.9%
same,inhibition at 1 µM,RET(Y791F),3%
same,inhibition at 1 µM,RSK4,-6.5%
same,inhibition at 1 µM,SRC,3.2%
same,inhibition at 1 µM,TNIK,48.6%
same,inhibition at 1 µM,YES,-9.6%
